For test [1], the target named is GST-Alk protein (mutant L1196M 1058-1620) (Homo sapiens (Human), UniProt Q9UM73, L1196M). The test can be described thus: HTRF kinase test with GST-Alk protein, mutant L1196M (ATP 200 microM, enzyme 1 nM). The settings on record: GST-Alk mutant L1196M 1058-1620, ATP 200 microM. It is filed as biochemical.
Test [2] deals with GST-Alk protein (wild-type form 1058-1620) (Homo sapiens (Human), UniProt Q9UM73). The test can be described thus: HTRF kinase test with GST-Alk protein, wild-type form (ATP 400 microM, enzyme 2 nM). Format: biochemical. The settings on record: GST-Alk wild-type form 1058-1620, ATP 400 microM.

Structures are written as SMILES.

GST-Alk protein (mutant L1196M 1058-1620), sequence (Q9UM73 1058-1620 L1196M): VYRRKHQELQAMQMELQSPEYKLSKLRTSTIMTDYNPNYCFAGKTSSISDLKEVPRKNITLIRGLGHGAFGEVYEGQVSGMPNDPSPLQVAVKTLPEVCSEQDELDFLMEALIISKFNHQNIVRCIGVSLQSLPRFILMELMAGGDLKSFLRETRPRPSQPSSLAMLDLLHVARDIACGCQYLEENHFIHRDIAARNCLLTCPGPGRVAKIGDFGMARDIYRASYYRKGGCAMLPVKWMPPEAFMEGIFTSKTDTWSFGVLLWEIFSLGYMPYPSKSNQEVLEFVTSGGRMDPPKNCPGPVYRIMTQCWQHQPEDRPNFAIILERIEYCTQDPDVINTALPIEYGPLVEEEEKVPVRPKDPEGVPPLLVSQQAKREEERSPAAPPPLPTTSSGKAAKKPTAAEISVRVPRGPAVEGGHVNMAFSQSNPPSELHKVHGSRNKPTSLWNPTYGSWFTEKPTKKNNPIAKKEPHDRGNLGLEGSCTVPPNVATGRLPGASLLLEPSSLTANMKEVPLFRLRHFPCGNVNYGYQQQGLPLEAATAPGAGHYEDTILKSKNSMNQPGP
GST-Alk protein (wild-type form 1058-1620), sequence (Q9UM73 1058-1620): as the sequence (Q9UM73 1058-1620 L1196M) above, with M139L counted along it

What is called IC50 is the midpoint of a concentration-inhibition curve. Read a low IC50 as greater potency in that assay. As for `COc1nc(C)ccc1-c1c(CO)sc2cnc(Nc3cc(C)c(N4CCN(C)CC4)cc3OC(C)C)nc12` [Compound I-191, [7-(2-Methoxy-6-methylpyridin-3-yl)-2-{[5-methyl-4-(4-methylpiperazin-1-yl)-2-(propan-2-yloxy)phenyl]amino}thieno[3,2-d]pyrimidin-6-yl]methanol], the half-maximal inhibitory concentration (IC50) in test [1] came to 14 nM; in test [2], 12 nM.

Values taken from patent publication US9115140B2, “Thienopyrimidine derivatives, processes for the preparation thereof and therapeutic uses thereof” (SANOFI, priority 2012, dated 2015).
